Laboratory results reported in US20250108038A1 (priority 2023, published 2025).

Test system: HEK293 uptake transporter overexpressing and control cells
Test: Resazurin-based cytotoxicity assay
Procedure: The cells were plated on 96-well plates. Prior to the experiment the medium was removed, and cells were rinsed with 2×100 μL of the respective buffer for uptake transporter transfected and control cell lines.

[1] = MATE1 assay, 5.00 μM, incubation 30 + 3 min
[2] = MATE1 assay, 10.00 μM, incubation 30 + 3 min
[3] = MATE1 assay, 20.00 μM, incubation 30 + 3 min
[4] = MATE1 assay, 30.00 μM, incubation 30 + 3 min
[5] = MATE2-K assay, 5.00 μM, incubation 30 + 1 min
[6] = MATE2-K assay, 10.00 μM, incubation 30 + 1 min
[7] = MATE2-K assay, 20.00 μM, incubation 30 + 1 min
[8] = MATE2-K assay, 30.00 μM, incubation 30 + 1 min
[9] = OAT1 assay, 5.00 μM, incubation 30 + 2 min
[10] = OAT1 assay, 10.00 μM, incubation 30 + 2 min
[11] = OAT1 assay, 20.00 μM, incubation 30 + 2 min
[12] = OAT1 assay, 30.00 μM, incubation 30 + 2 min
[13] = OAT3 assay, 5.00 μM, incubation 30 + 1 min
[14] = OAT3 assay, 10.00 μM, incubation 30 + 1 min
[15] = OAT3 assay, 20.00 μM, incubation 30 + 1 min
[16] = OAT3 assay, 30.00 μM, incubation 30 + 1 min
[17] = OATP1B1 assay, 5.00 μM, incubation 30 + 3 min
[18] = OATP1B1 assay, 10.00 μM, incubation 30 + 3 min
[19] = OATP1B1 assay, 20.00 μM, incubation 30 + 3 min
[20] = OATP1B1 assay, 30.00 μM, incubation 30 + 3 min
[21] = OATP1B3 assay, 5.00 μM, incubation 30 + 2 min
[22] = OATP1B3 assay, 10.00 μM, incubation 30 + 2 min
[23] = OATP1B3 assay, 20.00 μM, incubation 30 + 2 min
[24] = OATP1B3 assay, 30.00 μM, incubation 30 + 2 min
[25] = OCT1 assay, 5.00 μM, incubation 30 + 3 min
[26] = OCT1 assay, 10.00 μM, incubation 30 + 3 min

SMILES: OC1(c2ccc(Cl)cc2)c2ccccc2C2=NCCN21 (centres unmarked) [Compound A, 5-(4-chlorophenyl)-2,3-dihydroimidazo[1,2-b]isoindol-5-ol, reference compound]
- Cell viability (cytotoxic effect) (HEK293-MATE1-LV, -MATE2-K-LV, -OAT1-LV, -OAT3-LV, -OATP1B1-LV, -OATP1B3-LV, -OCT1-LV, -OCT2-LV and control cells): did not reduce the cell viability
- Relative cell viability, control cells [1]: 99.21 ± 1.16 % of control
- Relative cell viability, transfected cells [1]: 100.44 ± 1.23 % of control
- Relative cell viability, control cells [2]: 99.15 ± 1.14 % of control
- Relative cell viability, transfected cells [2]: 100.94 ± 1.13 % of control
- Relative cell viability, control cells [3]: 99.30 ± 1.01 % of control
- Relative cell viability, transfected cells [3]: 101.82 ± 1.13 % of control
- Relative cell viability, control cells [4]: 99.32 ± 1.20 % of control
- Relative cell viability, transfected cells [4]: 100.38 ± 1.18 % of control
- Relative cell viability, control cells [5]: 98.30 ± 0.72 % of control
- Relative cell viability, transfected cells [5]: 100.17 ± 1.24 % of control
- Relative cell viability, control cells [6]: 101.55 ± 0.74 % of control
- Relative cell viability, transfected cells [6]: 99.35 ± 0.57 % of control
- Relative cell viability, control cells [7]: 99.74 ± 0.77 % of control
- Relative cell viability, transfected cells [7]: 98.93 ± 1.00 % of control
- Relative cell viability, control cells [8]: 99.57 ± 0.77 % of control
- Relative cell viability, transfected cells [8]: 95.00 ± 1.36 % of control
- Relative cell viability, control cells [9]: 99.60 ± 2.60 % of control
- Relative cell viability, transfected cells [9]: 101.06 ± 0.56 % of control
- Relative cell viability, control cells [10]: 102.26 ± 1.66 % of control
- Relative cell viability, transfected cells [10]: 100.28 ± 0.26 % of control
- Relative cell viability, control cells [11]: 103.10 ± 2.01 % of control
- Relative cell viability, transfected cells [11]: 98.34 ± 0.33 % of control
- Relative cell viability, control cells [12]: 102.66 ± 2.43 % of control
- Relative cell viability, transfected cells [12]: 93.28 ± 2.26 % of control
- Relative cell viability, control cells [13]: 98.41 ± 1.36 % of control
- Relative cell viability, transfected cells [13]: 97.17 ± 0.40 % of control
- Relative cell viability, control cells [14]: 96.14 ± 2.42 % of control
- Relative cell viability, transfected cells [14]: 98.73 ± 0.68 % of control
- Relative cell viability, control cells [15]: 95.85 ± 2.05 % of control
- Relative cell viability, transfected cells [15]: 97.97 ± 0.89 % of control
- Relative cell viability, control cells [16]: 98.11 ± 1.29 % of control
- Relative cell viability, transfected cells [16]: 99.16 ± 0.66 % of control
- Relative cell viability, control cells [17]: 95.83 ± 0.85 % of control
- Relative cell viability, transfected cells [17]: 101.07 ± 0.61 % of control
- Relative cell viability, control cells [18]: 93.21 ± 2.18 % of control
- Relative cell viability, transfected cells [18]: 102.28 ± 0.69 % of control
- Relative cell viability, control cells [19]: 96.00 ± 0.81 % of control
- Relative cell viability, transfected cells [19]: 99.79 ± 0.88 % of control
- Relative cell viability, control cells [20]: 96.60 ± 2.23 % of control
- Relative cell viability, transfected cells [20]: 98.92 ± 1.07 % of control
- Relative cell viability, control cells [21]: 96.08 ± 0.72 % of control
- Relative cell viability, transfected cells [21]: 99.30 ± 0.80 % of control
- Relative cell viability, control cells [22]: 93.50 ± 0.99 % of control
- Relative cell viability, transfected cells [22]: 99.16 ± 1.10 % of control
- Relative cell viability, control cells [23]: 98.24 ± 0.33 % of control
- Relative cell viability, transfected cells [23]: 99.23 ± 0.43 % of control
- Relative cell viability, control cells [24]: 100.55 ± 0.31 % of control
- Relative cell viability, transfected cells [24]: 99.58 ± 0.58 % of control
- Relative cell viability, control cells [25]: 95.85 ± 5.15 % of control
- Relative cell viability, transfected cells [25]: 105.13 ± 8.07 % of control
- Relative cell viability, control cells [26]: 99.88 ± 5.10 % of control
- Relative cell viability, transfected cells [26]: 106.01 ± 8.03 % of control
